# Numbering of substitutions follows the chain as printed. Names may count otherwise.
# T1: MAO B (Homo sapiens, UniProt P27338)
# T1 construct: expressed in transfected cells; host or cells: COS-7 (African green monkey), riboflavin-containing (Rib+) or riboflavin-depleted (Rib-), transient electroporation
# T1 sequence (P27338 1-520): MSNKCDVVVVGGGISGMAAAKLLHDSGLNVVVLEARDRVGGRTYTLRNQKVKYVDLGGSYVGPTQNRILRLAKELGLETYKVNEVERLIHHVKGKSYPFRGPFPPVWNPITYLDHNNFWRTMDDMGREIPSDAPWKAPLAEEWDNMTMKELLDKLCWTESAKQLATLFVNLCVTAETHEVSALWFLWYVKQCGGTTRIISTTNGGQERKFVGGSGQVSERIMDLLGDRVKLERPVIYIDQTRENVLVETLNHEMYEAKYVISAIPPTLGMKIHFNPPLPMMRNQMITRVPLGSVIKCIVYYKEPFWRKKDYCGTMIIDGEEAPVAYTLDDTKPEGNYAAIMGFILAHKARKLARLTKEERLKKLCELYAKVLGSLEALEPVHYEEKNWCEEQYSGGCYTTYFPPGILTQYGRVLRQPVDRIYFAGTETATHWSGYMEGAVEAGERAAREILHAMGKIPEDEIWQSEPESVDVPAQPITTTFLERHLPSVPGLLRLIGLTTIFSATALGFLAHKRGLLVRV
# B1: wild-type: wild-type MAO B expressed in Rib^- COS-7 cells (protein, UniProt P27338 2-520, looked up)
# Amine oxidase …: SNKCDVVVVGGGISGMAAAKLLHDSGLNVVVLEARDRVGGRTYTLRNQKVKYVDLGGSYVGPTQNRILRLAKELGLETYKVNEVERLIHHVKGKSYPFRGPFPPVWNPITYLDHNNFWRTMDDMGREIPSDAPWKAPLAEEWDNMTMKELLDKLCWTESAKQLATLFVNLCVTAETHEVSALWFLWYVKQCGGTTRIISTTNGGQERKFVGGSGQVSERIMDLLGDRVKLERPVIYIDQTRENVLVETLNHEMYEAKYVISAIPPTLGMKIHFNPPLPMMRNQMITRVPLGSVIKCIVYYKEPFWRKKDYCGTMIIDGEEAPVAYTLDDTKPEGNYAAIMGFILAHKARKLARLTKEERLKKLCELYAKVLGSLEALEPVHYEEKNWCEEQYSGGCYTTYFPPGILTQYGRVLRQPVDRIYFAGTETATHWSGYMEGAVEAGERAAREILHAMGKIPEDEIWQSEPESVDVPAQPITTTFLERHLPSVPGLLRLIGLTTIFSATALGFLAHKRGLLVRV
# B2: V10I: control variant, Val in position 10 replaced with Ile (protein, UniProt P27338 2-520, looked up, variant V10I)
# Amine oxidase …: B1 Amine oxidase … with V9I
# Experiments:
# MAO B [1] = molecular target: T1, MAO B; test: Quantitation of expressed MAO B protein by ELISA in transfected COS-7 cells; assay type: cell-based; design: MAO B Expressed: unit not given here; conditions: cofactor added with MAO B cDNA into Rib^- COS-7 cells; 48 hours; mean ± SE, three experiments
# Description: Total protein concentrations of samples containing MAO B holoenzyme, apoenzyme, or variant MAO Bs were determined by a MicroBCA kit (Pierce). All samples were then adjusted to equal protein concentrations and assayed for MAO B protein by ELISA using a modification of the method of Yeomanson and Billett (25) as described previously (18).
# MAO B cDNA was expressed sequentially at different time intervals in these cells during this riboflavin depletion process (FIG. 2). Each data point in FIG. 2 represents an individual expression assay. For each assay, a sample of COS-7 cells grown in riboflavin-free medium were transfected with MAO B cDNA via electroporation. Concurrently, Rib^+ COS-7 cells were transfected with MAO B cDNA to serve as a control. Following incubation for 48 hours, the cells were homogenized and assays were performed to determine protein concentration, MAO B concentration by ELISA using polyclonal antibodies, and MAO B activity using [^14 C] benzylamine.
# An equal amount of MAO B cDNA (15 μg) was expressed in both types of […]
# MAO B [2] = molecular target: T1, MAO B; test: FAD coupling in intact cells: MAO B enzymatic activity after electroporation of MAO B cDNA with cofactor into Rib^- COS-7 cells ([^14 C] benzylamine substrate); assay type: cell-based; design: Percent of Holo-MAO B Activity: concentration or dose not given beside the values; conditions: for restoration of active MAO B (in words): cofactor added with MAO B cDNA during electroporation; for Enzymatic Activity: cofactor added with MAO B cDNA into Rib^- COS-7 cells, 48 hours, mean ± SE, three experiments; for Percent of Holo-MAO B Activity: relative to holo-MAO B expressed in Rib^+ COS-7 cells, 2880 min
# Description: (§1) Wild-type or mutant MAO B cDNAs were transiently transfected into COS-7 cells by electroporation (23) as previously described (18). Briefly, Rib^+ - or Rib^- COS-7 cells were harvested during late log phase growth and resuspended to a concentration of 3.1×10^6 cells/ml in either riboflavin-containing or riboflavin-free medium, respectively. Wild-type or mutant MAO B cDNAs ([…]) were added to 0.8 ml of cell suspension. […] Electroporation was carried out in a Bio-Rad Gene Pulser with a setting of 250 V and 500 μF. Cells were resuspended in 15 ml of riboflavin-containing or riboflavin-free medium and incubated at 37° C. with 5% CO2. Transfected COS-7 cells were harvested at 48 hours and homogenized in a lysis solution containing 20 mM Tris-HCl, 1 mM EDTA, 0.5 mM PMSF, pH 8.0. The homogenate was diluted with an equal volume of the same buffer supplemented with 300 mM NaCl to obtain a 150 mM final NaCl concentration. Triton X-100 (Pierce) was added to the lysate to give a final concentration of 0.25%, and the samples were allowed to stir for 50 min. at 4° C. to extract MAO B from the outer mitochondrial membrane. After Triton extraction, the lysate was centrifuged at 1300×g for 5 min. at 4° C. to remove insoluble cell debris.
# MAO B activity was assayed radiometrically by a modification of the method of Wurtman and Axelrod (26) as described previously (18). Briefly, the reaction mixture contained 200 μl of 50 mM sodium phosphate buffer (pH 7.4), 3.6 nmole of 55 mCi/mmol [^14 C] benzylamine hydrochloride (Amersham), 10 nmoles of unlabeled benzylamine and 10 μl of cell lysate. Samples were run in triplicate, and one out of each set was denatured with […] of 6N HCl prior to the addition of substrate to serve as an internal control. All reactions were incubated for 9 minutes at 37° C., and terminated by the addition of 25 μl of 6N HCl. The reaction product was extracted with 500 μl of toluene, and an aliquot (200 μl) of the organic phase from each sample was counted in liquid scintillation fluid (Bio-Safe) in a Beckman LB 3801 scintillation counter.
# FMN or riboflavin were also capable of restoring approximately 75% of MAO B holoenzyme activity. However, only 40% of MAO B holoenzyme activity was obtained by the addition of 8α-hydroxyriboflavin.
# Various cofactors were added with MAO B cDNA into Rib^- COS7 cells
# MAO B [3] = test: [^14 C] FAD incorporation into wild-type or mutant MAO B in Rib^- COS-7 cells (immunoprecipitation, fluorography); assay type: binding, human; conditions: about 59 kDa; equal MAO B concentrations
# Description: Mutagenesis was carried out by the method of Deng and Nickoloff (22) using a Transformer Site-directed Mutagenesis kit (Clontech). Glu in position 34 was replaced with Asp (E34D), Gln (E34Q), or Ala (E34A), and Val in position 10 was replaced with Ile (V10I) as described by Kwan et al. (18).
# as §1
# Transfected Rib^+ - or Rib^- COS-7 cells were homogenized, and extracted with 0.25% Triton X-100 for 50 minutes at 4° C. The cell lysates were centrifuged at 1300×g for 5 minutes, and an aliqout of each supernatant was analyzed for MAO B concentration by ELISA. All supernatants were then adjusted to equal MAO B concentration and incubated with polyclonal goat anti-MAO B antibody (10 μg) overnight at 4° C. Protein-G Sepharose beads (Pierce) were added (50 μl) and incubation was continued for 3 hours. The protein-G Sepharose/goat antibody/MAO B immmunocomplex was collected by centrifugation at 10,000×g for 20 seconds and washed 6 times with 150 μl of 20 mM Tris buffer, pH 8.0. The immunocomplex was then dissolved in SDS-PAGE sample buffer and analyzed by Western blot or fluorography.
# The immunoprecipitated proteins (obtained as described above) were subjected to electrophoresis in a 10% SDS-polyacrylamide gel and examined by Western blotting as previously described (18). The immunoprecipitated proteins (obtained as described above) were subjected to electrophoresis in a 10% SDS-polyacrylamide gel. The SDS-PAGE gel was fixed by soaking in 7% acetic acid, 10% methanol, 83% H2 O for 1 hour, and then processed for fluorography as described by Bonner and Laskey (27). The dried gel was exposed to Kodak X-OMAT AR film at -80° C. for 2 weeks.
# The expressed wild-type and variant MAO Bs were adjusted to equal concentrations using ELISA before immunoprecipitation, and then analyzed by fluorography. The amount of incorporation of [^14 C] […] FAD was incorporated into the enzyme.
Molecule,MAO B Expressed (MAO B [1]),restoration of active MAO B (in words) (MAO B [2]),Enzymatic Activity (MAO B [2]),Percent of Holo-MAO B Activity (MAO B [2]),MAO B activity relative to that obtained with riboflavin (MAO B [2]; Rib^- COS-7 cells),Percent of Holo-MAO B Activity (MAO B [2]; listed as 8α-hydroxyriboflavin),[^14 C] FAD incorporation (band on fluorogram) (MAO B [3])
NC(=O)c1ccc[n+]([C@@H]2O[C@H](COP(=O)(O)OP(=O)(O)OC[C@H]3O[C@@H](n4cnc5c(N)ncnc54)[C@H](O)[C@@H]3O)[C@@H](O)[C@H]2O)c1 [NAD^+],1.14 ± 0.06,did not yield active MAO B,0.02 ± 0.00 μmol benzylamine/minute/mg MAO,1.8%,,,
"Cc1cc2nc3c(=O)[nH]c(=O)nc-3n(C[C@H](O)[C@H](O)[C@H](O)CO)c2cc1C [Riboflavin, riboflavin]",0.90 ± 0.13,equal levels of MAO B activity,0.86 ± 0.06 μmol benzylamine/minute/mg MAO,76.1%,,,
Cc1cc2nc3c(=O)[nH]c(=O)nc-3n(C[C@H](O)[C@H](O)[C@H](O)COP(=O)(O)O)c2cc1C [FMN],0.81 ± 0.17,equal levels of MAO B activity,0.85 ± 0.03 μmol benzylamine/minute/mg MAO,,,,
"Cc1cc2nc3c(=O)[nH]c(=O)nc-3n(C[C@H](O)[C@H](O)[C@H](O)CO)c2cc1CO [8α-OH Rib, 8α-hydroxyriboflavin]",0.95 ± 0.08,,0.45 ± 0.01 μmol benzylamine/minute/mg MAO,39.8%,about one half of that obtained with the addition of riboflavin,40%,
B1,,,,,,,dark band
B2,,,,,,,dark band

# — US5863776A, “Method of preparing apoenzyme” (Research Development Foundation, priority 1996, dated 1999)
